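The compound was tested at five concentrations on cells cultured in 96-well plates, with a 48-hour exposure period. TGI: concentration producing complete growth inhibition.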
Experiments:
Experiment in all cases: NCI tumour cell line growth inhibition, 48 h
A498 renal = tested on: A498 renal
A549 NSCLC = tested on: A549 NSCLC
CAKI-1 renal = tested on: CAKI-1 renal
CCRF-CEM leukemia = tested on: CCRF-CEM leukemia
COLO 205 colon = tested on: COLO 205 colon
DLD-1 colon = tested on: DLD-1 colon
DMS 114 small cell lung = tested on: DMS 114 small cell lung
DMS 273 small cell lung = tested on: DMS 273 small cell lung
EKVX NSCLC = tested on: EKVX NSCLC
HCC-2998 colon = tested on: HCC-2998 colon
HCT-116 colon = tested on: HCT-116 colon
HCT-15 colon = tested on: HCT-15 colon
HL-60(TB) leukemia = tested on: HL-60(TB) leukemia
HOP-18 NSCLC = tested on: HOP-18 NSCLC
HOP-62 NSCLC = tested on: HOP-62 NSCLC
HOP-92 NSCLC = tested on: HOP-92 NSCLC
HT29 colon = tested on: HT29 colon
IGROV1 ovarian = tested on: IGROV1 ovarian
K-562 leukemia = tested on: K-562 leukemia
KM12 colon = tested on: KM12 colon
KM20L2 colon = tested on: KM20L2 colon
LOX IMVI melanoma = tested on: LOX IMVI melanoma
M19-MEL melanoma = tested on: M19-MEL melanoma
MALME-3M melanoma = tested on: MALME-3M melanoma
MCF7 breast = tested on: MCF7 breast
MOLT-4 leukemia = tested on: MOLT-4 leukemia
NCI-H226 lung = tested on: NCI-H226 lung
NCI-H23 lung = tested on: NCI-H23 lung
NCI-H460 lung = tested on: NCI-H460 lung
NCI-H522 lung = tested on: NCI-H522 lung
NCI/ADR-RES ovarian = tested on: NCI/ADR-RES ovarian
OVCAR-3 ovarian = tested on: OVCAR-3 ovarian
OVCAR-4 ovarian = tested on: OVCAR-4 ovarian
OVCAR-5 ovarian = tested on: OVCAR-5 ovarian
OVCAR-8 ovarian = tested on: OVCAR-8 ovarian
P388 leukemia = tested on: P388 leukemia
P388/ADR leukemia = tested on: P388/ADR leukemia
RPMI-8226 leukemia = tested on: RPMI-8226 leukemia
RXF 393 renal = tested on: RXF 393 renal
SF-268 CNS = tested on: SF-268 CNS
SF-295 CNS = tested on: SF-295 CNS
SF-539 CNS = tested on: SF-539 CNS
SK-MEL-2 melanoma = tested on: SK-MEL-2 melanoma
SK-MEL-28 melanoma = tested on: SK-MEL-28 melanoma
SK-MEL-5 melanoma = tested on: SK-MEL-5 melanoma
SK-OV-3 ovarian = tested on: SK-OV-3 ovarian
SN12C renal = tested on: SN12C renal
SN12K1 renal = tested on: SN12K1 renal
SNB-19 CNS = tested on: SNB-19 CNS
SNB-75 CNS = tested on: SNB-75 CNS
SNB-78 CNS = tested on: SNB-78 CNS
SW-620 colon = tested on: SW-620 colon
U251 CNS = tested on: U251 CNS
UACC-257 melanoma = tested on: UACC-257 melanoma
UACC-62 melanoma = tested on: UACC-62 melanoma
UO-31 renal = tested on: UO-31 renal
XF 498 CNS = tested on: XF 498 CNS

Question: Which TGI (A498 renal) does the source give for `N#CC(OC1OC(COC2OC(CO)C(O)C(O)C2O)C(O)C(O)C1O)c1ccccc1` (stereo not drawn) here?
Answer: > 225 µM

Question: What about the TGI (A549 NSCLC) of the same compound?
Answer: > 225 µM

Question: What about the TGI (CAKI-1 renal) of the same compound?
Answer: > 225 µM

Question: What about the TGI (CCRF-CEM leukemia) of the same compound?
Answer: > 225 µM

Question: And the TGI (COLO 205 colon)?
Answer: > 225 µM

Question: What about the TGI (DLD-1 colon) of the same compound?
Answer: > 225 µM

Question: And the TGI (DMS 114 small cell lung)?
Answer: > 225 µM

Question: What about the TGI (DMS 273 small cell lung) of the same compound?
Answer: > 225 µM

Question: And the TGI (EKVX NSCLC)?
Answer: > 225 µM

Question: And the TGI (HCC-2998 colon)?
Answer: > 225 µM

Question: And the TGI (HCT-116 colon)?
Answer: > 225 µM

Question: And the TGI (HCT-15 colon)?
Answer: > 225 µM

Question: What about the TGI (HL-60(TB) leukemia) of the same compound?
Answer: > 225 µM

Question: What about the TGI (HOP-18 NSCLC) of the same compound?
Answer: > 225 µM

Question: What about the TGI (HOP-62 NSCLC) of the same compound?
Answer: > 225 µM

Question: And the TGI (HOP-92 NSCLC)?
Answer: > 225 µM

Question: And the TGI (HT29 colon)?
Answer: > 225 µM

Question: What about the TGI (IGROV1 ovarian) of the same compound?
Answer: > 225 µM

Question: And the TGI (K-562 leukemia)?
Answer: > 225 µM

Question: And the TGI (KM12 colon)?
Answer: > 225 µM

Question: And the TGI (KM20L2 colon)?
Answer: > 225 µM

Question: And the TGI (LOX IMVI melanoma)?
Answer: > 225 µM

Question: What about the TGI (M19-MEL melanoma) of the same compound?
Answer: > 225 µM

Question: What about the TGI (MALME-3M melanoma) of the same compound?
Answer: > 225 µM

Question: What about the TGI (MCF7 breast) of the same compound?
Answer: > 225 µM

Question: What about the TGI (MOLT-4 leukemia) of the same compound?
Answer: > 225 µM

Question: What about the TGI (NCI-H226 lung) of the same compound?
Answer: > 225 µM

Question: And the TGI (NCI-H23 lung)?
Answer: > 225 µM

Question: And the TGI (NCI-H460 lung)?
Answer: > 225 µM

Question: What about the TGI (NCI-H522 lung) of the same compound?
Answer: > 225 µM

Question: What about the TGI (NCI/ADR-RES ovarian) of the same compound?
Answer: > 225 µM

Question: And the TGI (OVCAR-3 ovarian)?
Answer: > 225 µM

Question: And the TGI (OVCAR-4 ovarian)?
Answer: > 225 µM

Question: And the TGI (OVCAR-5 ovarian)?
Answer: > 225 µM

Question: And the TGI (OVCAR-8 ovarian)?
Answer: > 225 µM

Question: And the TGI (P388 leukemia)?
Answer: > 225 µM

Question: What about the TGI (P388/ADR leukemia) of the same compound?
Answer: > 225 µM

Question: And the TGI (RPMI-8226 leukemia)?
Answer: > 225 µM

Question: What about the TGI (RXF 393 renal) of the same compound?
Answer: > 225 µM

Question: And the TGI (SF-268 CNS)?
Answer: > 225 µM

Question: And the TGI (SF-295 CNS)?
Answer: > 225 µM

Question: And the TGI (SF-539 CNS)?
Answer: > 225 µM

Question: What about the TGI (SK-MEL-2 melanoma) of the same compound?
Answer: > 225 µM

Question: What about the TGI (SK-MEL-28 melanoma) of the same compound?
Answer: > 225 µM

Question: And the TGI (SK-MEL-5 melanoma)?
Answer: > 225 µM

Question: What about the TGI (SK-OV-3 ovarian) of the same compound?
Answer: > 225 µM

Question: What about the TGI (SN12C renal) of the same compound?
Answer: > 225 µM

Question: What about the TGI (SN12K1 renal) of the same compound?
Answer: > 225 µM

Question: And the TGI (SNB-19 CNS)?
Answer: > 225 µM

Question: And the TGI (SNB-75 CNS)?
Answer: > 225 µM

Question: What about the TGI (SNB-78 CNS) of the same compound?
Answer: > 225 µM

Question: And the TGI (SW-620 colon)?
Answer: > 225 µM

Question: What about the TGI (U251 CNS) of the same compound?
Answer: > 225 µM

Question: What about the TGI (UACC-257 melanoma) of the same compound?
Answer: > 225 µM

Question: What about the TGI (UACC-62 melanoma) of the same compound?
Answer: > 225 µM

Question: And the TGI (UO-31 renal)?
Answer: > 225 µM

Question: And the TGI (XF 498 CNS)?
Answer: > 225 µM

Question: What does the source list for `COc1cc(N=Nc2cccc(S(=O)(=O)O)c2)ccc1N=Nc1ccc(/C=C/c2ccc(-n3on3-c3ccc(/C=C/c4ccc(N=Nc5ccc(N=Nc6cccc(S(=O)(=O)O)c6)cc5OC)cc4S(=O)(=O)O)c(S(=O)(=O)O)c3)cc2S(=O)(=O)O)c(S(=O)(=O)O)c1`?
Answer: TGI (A498 renal): > 100 µM; TGI (A549 NSCLC): > 100 µM; TGI (CCRF-CEM leukemia): > 100 µM; TGI (COLO 205 colon): > 100 µM; TGI (DLD-1 colon): > 100 µM; TGI (DMS 114 small cell lung): > 100 µM; TGI (DMS 273 small cell lung): > 100 µM; TGI (EKVX NSCLC): > 100 µM; TGI (HCC-2998 colon): > 100 µM; TGI (HCT-116 colon): > 100 µM; TGI (HCT-15 colon): > 100 µM; TGI (HL-60(TB) leukemia): > 100 µM; TGI (HOP-18 NSCLC): > 100 µM; TGI (HOP-62 NSCLC): > 100 µM; TGI (HOP-92 NSCLC): > 100 µM; TGI (HT29 colon): > 100 µM; TGI (IGROV1 ovarian): > 100 µM; TGI (K-562 leukemia): > 100 µM; TGI (KM12 colon): > 100 µM; TGI (KM20L2 colon): > 100 µM; TGI (LOX IMVI melanoma): > 100 µM; TGI (M19-MEL melanoma): > 100 µM; TGI (MALME-3M melanoma): > 100 µM; TGI (MCF7 breast): > 100 µM; TGI (MOLT-4 leukemia): > 100 µM; TGI (NCI-H226 lung): > 100 µM; TGI (NCI-H23 lung): > 100 µM; TGI (NCI-H460 lung): > 100 µM; TGI (NCI-H522 lung): > 100 µM; TGI (NCI/ADR-RES ovarian): > 100 µM; TGI (OVCAR-3 ovarian): > 100 µM; TGI (OVCAR-4 ovarian): > 100 µM; TGI (OVCAR-5 ovarian): > 100 µM; TGI (OVCAR-8 ovarian): > 100 µM; TGI (P388 leukemia): > 100 µM; TGI (P388/ADR leukemia): > 100 µM; TGI (RPMI-8226 leukemia): > 100 µM; TGI (RXF 393 renal): > 100 µM; TGI (SF-268 CNS): > 100 µM; TGI (SF-295 CNS): > 100 µM; TGI (SF-539 CNS): > 100 µM; TGI (SK-MEL-2 melanoma): > 100 µM; TGI (SK-MEL-28 melanoma): > 100 µM; TGI (SK-MEL-5 melanoma): > 100 µM; TGI (SK-OV-3 ovarian): > 100 µM; TGI (SN12C renal): > 100 µM; TGI (SN12K1 renal): > 100 µM; TGI (SNB-19 CNS): > 100 µM; TGI (SNB-75 CNS): > 100 µM; TGI (SNB-78 CNS): > 100 µM; TGI (SW-620 colon): > 100 µM; TGI (U251 CNS): > 100 µM; TGI (UACC-257 melanoma): > 100 µM; TGI (UACC-62 melanoma): > 100 µM; TGI (UO-31 renal): > 100 µM; TGI (XF 498 CNS): > 100 µM
